Biological target: T1, mouse c-fms (Mus musculus, UniProt P09581)
T1 construct: Macrophage-like cell line BAC-1.2F5 which expresses c-fms as a M-CSF receptor on cell membranes; endogenous in cells; host or cells: BAC-1.2F5 mouse macrophage-like cell line
T1 sequence (P09581 20-977): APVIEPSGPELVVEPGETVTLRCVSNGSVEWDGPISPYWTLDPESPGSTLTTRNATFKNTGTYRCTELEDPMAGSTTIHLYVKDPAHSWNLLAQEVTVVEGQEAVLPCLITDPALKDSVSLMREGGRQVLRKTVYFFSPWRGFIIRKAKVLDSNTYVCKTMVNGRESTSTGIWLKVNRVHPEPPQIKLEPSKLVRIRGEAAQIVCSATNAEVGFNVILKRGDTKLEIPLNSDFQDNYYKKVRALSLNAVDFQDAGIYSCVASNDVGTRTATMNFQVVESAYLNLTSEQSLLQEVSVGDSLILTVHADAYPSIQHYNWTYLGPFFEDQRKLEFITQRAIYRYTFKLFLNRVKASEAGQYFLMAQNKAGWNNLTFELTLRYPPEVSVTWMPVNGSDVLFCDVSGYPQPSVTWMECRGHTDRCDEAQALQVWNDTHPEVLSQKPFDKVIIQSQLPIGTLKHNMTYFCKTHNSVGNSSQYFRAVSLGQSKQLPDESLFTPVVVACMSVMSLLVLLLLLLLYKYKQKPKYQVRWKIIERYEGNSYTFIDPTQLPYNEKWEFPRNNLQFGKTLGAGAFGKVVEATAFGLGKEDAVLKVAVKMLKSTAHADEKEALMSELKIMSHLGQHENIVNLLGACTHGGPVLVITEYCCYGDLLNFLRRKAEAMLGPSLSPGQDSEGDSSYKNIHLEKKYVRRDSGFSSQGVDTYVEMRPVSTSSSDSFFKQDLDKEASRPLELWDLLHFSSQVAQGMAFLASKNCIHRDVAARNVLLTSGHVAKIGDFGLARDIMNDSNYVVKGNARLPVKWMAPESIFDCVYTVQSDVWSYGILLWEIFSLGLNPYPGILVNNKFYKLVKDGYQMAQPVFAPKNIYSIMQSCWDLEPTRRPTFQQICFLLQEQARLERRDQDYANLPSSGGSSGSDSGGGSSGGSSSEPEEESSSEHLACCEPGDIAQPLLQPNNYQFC
Assay: Inhibition of c-fms autophosphorylation in macrophage-like cell line BAC-1.2F5 by M-CSF stimulation (ELISA)
Type: cell-based
Conditions: BAC-1.2F5 cells, human recombinant M-CSF 50 ng/ml, read-out: c-fms autophosphorylation 50% inhibitory concentration (IC50)
Method: Macrophage-like cell line BAC-1.2F5 which expresses c-fms as a M-CSF receptor on cell membranes (CLAUDIA M. et al., J. Cell. Physiol., 130, 420-427 (1987), “Isolation and Characterization of a Cloned Growth Factor Dependent Macrophage Cell Line, BAC1.2F5”) was cultured at 37° C. in a DMEM medium containing L-cell supernatant and 10% fetal calf serum (GIBCO BRL) in a 5% CO2 incubator until about 50 to 70% confluent. The harvested cells were inoculated into wells, each containing the same medium, in a collagen type I coat 96-well flat-bottom plate in an amount of 5.0×10^4 per well, and cultured at 37° C. for 12 hr. Thereafter, the medium was replaced with a DMEM medium containing a 0.1% fetal calf serum and cultured for 12 hr. Thereafter, a test compound dissolved in dimethyl sulfoxide was added to each well, and cells were incubated at 37° C. for one hr. Human recombinant M-CSF was added to a final concentration of 50 ng/ml, and cells were stimulated at 37° C. for 6 min. After the medium was removed, 50 μl of a solubilization buffer (20 mM HEPES (pH 7.4), 150 mM NaCl, 0.2% Triton X-100, 10% glycerol, 5 mM sodium orthovanadylate, 5 mM disodium ethylenediaminetetraacetate, and 2 mM Na4P2O7) was added thereto. The mixture was shaken at 4° C. for 2 hr to prepare a cell extract as an assay sample which was then used for an ELISA assay.
The plate for the ELISA assay was prepared as follows. Phosphate buffered saline (50 μl, pH 7.4) containing 5 μg/ml of anti-phospho-tyrosine antibody (PY20; Transduction Laboratories) was added to a microplate for ELISA (Maxisorp; purchased from NUNC), followed by standing at 4° C. overnight to be immobilized on the wells. Thereafter, each well was washed twice with 200 μl of a Ca- and Mg-free phosphate buffer containing 0.1% Tween-20 (hereinafter referred to as “PBS-T”), and 200 μl of a blocking solution (Dainippon Pharmaceutical Co. Ltd.: BlockAce) was added to each well, and the wells were then allowed to stand at room temperature for 2 hr for blocking.
Separately, phosphate buffered saline (50 μl, pH 7.4) containing 5 μg/ml of anti-phospho-tyrosine antibody (PY20; Transduction Laboratories) was added to a microplate for ELISA (Maxisorp; purchased from NUNC), followed by standing at 4° C. overnight to form a solid phase on the wells. After washing of the plate, 300 μl of a blocking solution was added, followed by standing at room temperature for 2 hr to perform blocking. After washing, the whole quantity of the cell extract was transferred to the wells, and the plate was then allowed to stand at 4° C. overnight. After washing, anti-c-fms antiserum (Upstate Biotechnology, Inc.) was allowed to react at room temperature for one hr, and, after washing, a peroxidase-labeled anti-rabbit Ig antibody (Amersham) was allowed to react at room temperature for one hr. After washing, a chromophoric substrate for peroxidase (Sumitomo Bakelite Co., Ltd.) was added thereto to initiate a reaction. After a suitable level of color development, a reaction termination solution was added to stop the reaction, and the absorbance at 450 nm was measured with a microplate reader. The c-fms phosphorylation activity for each well was determined by presuming the absorbance without the addition of the test compound and with the addition of M-CSF to be 100% c-fms phosphorylation activity and the absorbance without the addition of the test compound and M-CSF to be 0% c-fms phosphorylation activity. The concentration of the test compound was varied on several levels, the c-fms phosphorylation inhibitory rate was determined for each case, and the concentration of the test compound necessary for inhibiting 50% of c-fms phosphorylation (IC50) was calculated.

| SMILES | IC50 |
| --- | --- |
| COc1cc(Oc2ccnc3cc(OC)c(OC)cc23)ccc1NC(=O)N[C@@H](C)c1nccs1 [Example 75, N-{4-[(6,7-Dimethoxy-4-quinolyl)oxy]-2-methoxyphenyl}-N′-[(1S)-1-(1,3-thiazol-2-yl)ethyl]urea] | 2.1 nM |
| CC[C@@H](NC(=O)Nc1ccc(Oc2ccnc3cc(OC)c(OC)cc23)cc1)c1ccccc1 [Example 38, N-{4-[(6,7-Dimethoxy-4-quinolyl)oxy]phenyl}-N′-[(1R)-1-phenylpropyl]urea] | 5.7 nM |
| COc1cc(Oc2ccnc3cc(OC)c(OC)cc23)ccc1NC(=O)N[C@H](C)c1nccs1 [Example 76, N-{4-[(6,7-Dimethoxy-4-quinolyl)oxy]-2-methoxyphenyl}-N′-[(1R)-1-(1,3-thiazol-2-yl)ethyl]urea] | 7.1 nM |
| COc1cc2nccc(Oc3ccc(NC(=O)N[C@H]4CCc5ccccc54)cc3)c2cc1OC [Example 43, N-[(1S)-2,3-Dihydro-1H-1-indenyl]-N′-{4-[(6,7-dimethoxy-4-quinolyl)oxy]phenyl}urea] | 3.1 nM |
| COc1cc2nccc(Oc3ccc(NC(=O)NC(C)c4nc(C)c(C)s4)c(C)c3)c2cc1OC (centres unmarked) [Example 96, N-{4-[(6,7-Dimethoxy-4-quinolyl)oxy]-2-methylphenyl}-N′-[1-(4,5-dimethyl-1,3-thiazol-2-yl)ethyl]urea] | 147 nM |
| COc1cc2nccc(Oc3cc(C)c(NC(=O)NC(C)c4nc(C)c(C)s4)cc3C)c2cc1OC (centres unmarked) [Example 98, N-{4-[(6,7-Dimethoxy-4-quinolyl)oxy]-2,5-dimethylphenyl}-N′-[1-(4,5-dimethyl-1,3-thiazol-2-yl)ethyl]urea] | 426 nM |

Further compounds by falling IC50, results first:

| IC50 | SMILES |
| --- | --- |
| 120 nM | COc1cc2nccc(Oc3ccc(NC(=O)NC(C)c4nc(C)c(C)s4)c(C(F)(F)F)c3)c2cc1OC (centres unmarked) [Example 97, N-[4-[(6,7-Dimethoxy-4-quinolyl)oxy]-2-(trifluoromethyl)phenyl]-N′-[1-(4,5-dimethyl-1,3-thiazol-2-yl)ethyl]urea] |
| 53.5 nM | COc1cc2nccc(Oc3ccc(NC(=O)NC(C)c4nc(C)c(C)s4)cc3)c2cc1OC (centres unmarked) [Example 94, N-{4-[(6,7-Dimethoxy-4-quinolyl)oxy]phenyl}-N′-[1-(4,5-dimethyl-1,3-thiazol-2-yl)ethyl]urea] |
| 38.3 nM | COc1cc2nccc(Oc3ccc(NC(=O)NC(C)c4nc(C)c(C)s4)c(F)c3)c2cc1OC (centres unmarked) [Example 95, N-{4-[(6,7-Dimethoxy-4-quinolyl)oxy]-2-fluorophenyl}-N′-[1-(4,5-dimethyl-1,3-thiazol-2-yl)ethyl]urea] |
| 5 nM | CC[C@H](NC(=O)Nc1ccc(Oc2ccnc3cc(OC)c(OC)cc23)cc1)c1ccccc1 [Example 37, N-{4-[(6,7-Dimethoxy-4-quinolyl)oxy]phenyl}-N′-[(1S)-1-phenylpropyl]urea] |
| 1.8 nM | COc1cc2nccc(Oc3ccc(NC(=O)N[C@@H]4CCc5ccccc54)cc3)c2cc1OC [Example 44, N-[(1R)-2,3-Dihydro-1H-1-indenyl]-N′-{4-[(6,7-dimethoxy-4-quinolyl)oxy]phenyl}urea] |
